Values after ≈ are worked out from the molar mass of the structure shown.

Experimental findings from patent US7977375B2, “Antibiotic and method of production thereof” (Helmholtz-Zentrum Für Infektionsforschung GmbH, priority 2004, dated 2011) are described below.

The test system of assay [1] is Enterococcus faecalis ATCC 29212. Briefly: kinetics of growth at sub-MIC concentrations (FIG. 1C). The assay is classed as cell-based. Particulars: E. faecalis ATCC 29212; 4 or 16 μg/ml; four hours following cultivation. An excerpt:
(§1) • FIG. 1A y-axis: Log CFU (Colony Forming Units) Cells/ml • x-axis: Time (HRS) • FIG. 1B y-axis: Log CFU (Colony Forming Units) Cells/ml • x-axis: Time (HRS) • FIG. 1C: y-axis: Log CFU (Colony Forming Units) Cells/ml • x-axis: Time (HRS) • FIG. 1D: y-axis: Log CFU (Colony Forming Units) Cells/ml • x-axis: Time (HRS) • FIG. 1E: y-axis: Log CFU (Colony Forming Units) Cells/ml • x-axis: Time (HRS) • FIG. 1F: y-axis: Log CFU (Colony Forming Units) Cells/ml • x-axis: Time (HRS) • FIG. 5A: y-axis: % Inhibition • x-axis Concentration μg/ml • FIG. 5B: y-axis: % Inhibition • x-axis Concentration μg/ml

In a further assay the test system is Candida krusei DSMZ6128. Briefly: kinetics of growth (FIG. 1E). In kind it is cell-based. Particulars: C. krusei; 128 μg/ml.
Source text: as §1

The next assay has as its system Candida krusei DSM 6128. Briefly: MIC / MBC in liquid culture. The assay is classed as cell-based. The settings on record: Pichia kudriavzevii.
For assay [2], the system named is MRSA 3 (methicillin-resistant S. aureus, clinical isolate). Briefly: agar diffusion method, inhibition zone. In kind it is cell-based, Staphylococcus aureus. Particulars: Staphylococcus aureus; MRSA 3; MH agar, 18 hours at 37° C.; per disk 10 μl crude extract, 50 μg macrolactin, 78 μg erythromycin, 30 μg vancomycin, 10 μg ampicillin. On the procedure:
(§2) The agar diffusion method employing Mueller-Hinton (MH) agar (Difco Laboratories) was used to determine effectiveness against bacteria and yeasts. Sterile paper disks (Schleicher & Schüell, Germany) were seeded with 10 μl crude extract or with a solution of purified macrolactin (final compound concentration on the disk 50 μg) and then placed on the surface of MH-agar plates that had been seeded beforehand with a suspension of overnight culture of the test microorganisms at a concentration of 10^5 cells/ml.

The test system of assay [3] is S. aureus # (own collection, methicillin-sensitive control strain). Briefly: agar diffusion method, inhibition zone. The assay is classed as cell-based, Staphylococcus aureus. Particulars: Staphylococcus aureus; S. aureus # own collection; MH agar, 18 hours at 37° C.; per disk 10 μl crude extract, 50 μg macrolactin, 78 μg erythromycin, 30 μg vancomycin, 10 μg ampicillin. On the procedure:
as §2

The test system of a further assay is S. aureus DSMZ 1104. Description: agar diffusion method, inhibition zone. The assay is classed as cell-based, Staphylococcus aureus. Particulars: Staphylococcus aureus, DSMZ1104; S. aureus DSMZ 1104; MH agar, 18 hours at 37° C.; per disk 10 μl crude extract, 50 μg macrolactin, 78 μg erythromycin, 30 μg vancomycin, 10 μg ampicillin. On the procedure: as §2
For assay [4], the system named is MRSA 2 (methicillin-resistant S. aureus, clinical isolate). Briefly: agar diffusion method, inhibition zone. The assay is classed as cell-based, Staphylococcus aureus. Particulars: Staphylococcus aureus; MRSA 2; MH agar, 18 hours at 37° C.; per disk 10 μl crude extract, 50 μg macrolactin, 78 μg erythromycin, 30 μg vancomycin, 10 μg ampicillin. On the procedure:
as §2

In the case of `CC1CCC/C=C/C=C/C(O)CC(O)C/C=C\C=C\C(OC(=O)CC(=O)O)C/C=C/C=C\C(=O)O1` (centres unmarked) [7-O-malonyl macrolactin A], in assay [1], the “effect on kinetics of growth” value was “inhibited the growth”. In addition, in the assay on Candida krusei DSMZ6128, the “growth inhibited by a factor” value is not above 10. For the same compound, the MBC in the assay on Candida krusei DSM 6128 (DSM6128, read-out: MBC (minimal bacteriostatic or fungistatic concentration)) came out at 32 µg/mL (≈ 65.5 µM). Besides, the MIC with Candida krusei DSM 6128 (DSM6128, read-out: MIC (minimal inhibitory concentration)) was more than 128 µg/mL. The zone of inhibition at 50 µg/disc in assay [2] stood at 41 mm; in assay [3], 30 mm; in the assay on S. aureus DSMZ 1104, 26 mm; in assay [4], 40 mm.
